Source: patent publication US9332761B2, “Synergistic combination of a chlorotoluron compound and zinc pyrithione for dry film protection” (Rohm and Haas Company, priority 2013, dated 2016)

Tested on: Chlorella sp. ATCC 7516
Experiment: Algal efficacy testing of dry paint films (modified ASTM 5589, 6-well plates)
Format: cell-based
Conditions: 3 weeks; for Total conc, ppm (minimum total biocide concentration in paint reaching pass level): pass level >=75% algal growth inhibition, acrylic/silicone paint film on filter paper
Experimental: These paints were then diluted with an antimicrobial free acrylic/silicone based paint and mixed to prepare targeted concentrations of antimicrobial compounds for the testing. The total biocides concentrations tested were 125, 250, 500, 1000, 2000 and 5000 ppm. After biocides addition or dilution, the paints were mixed 90 seconds with the horse power shaker (AXEL 75M3372/Agitateur SO-10MI) until uniformity was achieved. Paints containing different antimicrobial compounds at the same levels were mixed together in order to obtain the desired ratio of antimicrobial compounds. After one day, the paints were applied to Schleicher & Schuell filter paper at 280 μm wft and dried for 3 days at room temperature avoiding direct exposure to sunlight. Square discs (1.6 cm×1.6 cm) were cut out from each panel and were used as the substrate for algal efficacy tests. This sample size allowed for an agar border when the sample disc was placed into the well of the test plate.
Algal efficacy was tested according to modified ASTM 5589 which is a standard accelerated test method for determining resistance of various coatings (including paints) to algal defacement. To accommodate for high-throughput screening, this method was scaled down from petri dishes to 6-well plates. Bold Modified Basal Freshwater Nutrient Solution was used as growth medium. A single coated filter paper coupon was placed with a pair of sterile forceps at the center of the agar plug (on top) with the painted surface facing upwards.
Each well that contains a tested coupon was inoculated with 1750 μl of algal suspensions (1×10^6 cfu/ml) making sure that the whole surface (paint film as well as the agar surrounding it) was evenly covered. The plates were incubated at room temp (21° C.-25° C.) with cyclic exposure to light and dark phases, for a period of three weeks.
At the end of the three week incubation period, the samples were scored for percent inhibition regarding color intensity compared to the blank sample.
The Synergy Index calculation was performed as follows.
The SI is calculated based on F. C.
SI value of <1 in the formula indicates a synergism of the blended biocides exists.
The minimal targeted inhibition was set at 75%, meaning a coupon with at least 75% algal growth inhibition was considered as a pass.

Structure (SMILES): Cc1ccc(NC(=O)N(C)C)cc1Cl [Chlorotoluron, N′-(3-chloro-4-methylphenyl)-N,N-dimethylurea]
- Total conc, ppm (minimum total biocide concentration in paint reaching pass level): 1000 ppm
- inhibition at 1000 ppm (504 h, at total conc 1000 ppm in paint): 100%

Structure (SMILES): [O-][n+]1ccccc1[S][Zn][S]c1cccc[n+]1[O-] [ZnPT, bis(2-pyridylthio)zinc 1,1′-dioxide]
- % inhibition (at total conc 500 ppm in paint): 95%
- Total conc, ppm (minimum total biocide concentration in paint reaching pass level): 500 ppm
